{"source": "patent US9080220B2", "about": "(priority 2006, dated 2015)", "test_system": "inflammatory hyperalgesia induced by carrageenan on a rat's paw", "design": "species or system rat (male Sprague Dawley)", "conditions": "in vivo, ip", "note": "Like-named read-outs stand apart in the source and are kept apart here."}
{"molecule": "CN1CC[C@]23c4c5ccc(O)c4O[C@H]2[C@@H](O)C=C[C@H]3[C@H]1C5", "note": "[morphine]", "values": [{"measurement": "protection against hyperalgesia induced by carrageenan", "setting": "0.3 mg/kg", "result": "does not induce statistically significant protection"}, {"measurement": "increase of pain threshold following a mechanical stimulus applied to the rats' paws", "setting": "1 mg/kg", "result": 65, "unit": "%"}, {"measurement": "increase of pain threshold following a mechanical stimulus applied to the rats' paws", "setting": "3 mg/kg", "result": 97, "unit": "%"}]}
